What all share (type): cell-based, human
One assay relates to Ha-ras protein. The assay can be described thus: Ha-ras protein levels, immunoprecipitation and Western blot in HMVEC. The note with it: for Ha-ras protein expression: 48 hours following treatment. How it is done: (§1) For determination of protein levels by Western blot, cellular extracts were prepared using […] of RIPA extraction buffer per 100-mm dish. The protein concentration was quantified by Bradford assay using the BioRad kit (BioRad, Hercules, Calif.). Equal amounts of protein were loaded on 10% or 12% SDS-PAGE mini-gel (Novex, San Diego, Calif.). Once transferred to PVDF membranes (Millipore, Bedford, Mass.), the membranes were then treated for a minimum of 2 hours with specific primary antibody followed by incubation with secondary antibody conjugated to HRP. The results were visualized by Enhanced Chemiluminescent (ECL) detection (New England BioLab, Beverly, Mass.). In some experiments, the blots were stripped in stripping buffer (2% SDS, 12.5 mM Tris, pH 6.8) for 30 minutes at 50° C. After extensive washing, the blots were blocked and blotted with different primary antibody.
To examine the effect of ISIS 15168 (SEQ ID NO. 4) on Ha-ras protein levels, total ras protein was immunoprecipitated using a pan-ras monoclonal antibody (Oncogene Science, Cambridge, Mass.). The precipitated proteins were analyzed by SDS-PAGE, and Ha-ras protein levels were determined by western blot using a monoclonal antibody specific for Ha-ras (Oncogene Science, Cambridge, Mass.). […] The kinetics of Ha-ras reduction was slower than that of c-raf. The control oligonucleotide, ISIS 17552 (SEQ ID NO. 5), had no effect on Ha-ras protein level. The same blot was stripped and blotted a second time with a Ki-ras-specific antibody (Oncogene Science, Cambridge, Mass.).
On the technique in general: Immunoblotting shows a protein as a band on a membrane.

Another assay deals with Ki-ras protein. The assay can be described thus: Ki-ras protein levels by Western blot in HMVEC. Conditions: same blot stripped and blotted with Ki-ras-specific antibody. How it is done: as §1
To examine the effect of ISIS 15168 (SEQ ID NO. 4) on Ha-ras protein levels, total ras protein was immunoprecipitated using a pan-ras monoclonal antibody (Oncogene Science, Cambridge, Mass.). The precipitated proteins were analyzed by SDS-PAGE, and Ha-ras protein levels were determined by western blot using a monoclonal antibody specific for Ha-ras (Oncogene Science, Cambridge, Mass.). […] The kinetics of Ha-ras reduction was slower than that of c-raf. […]

In another assay the test system is Ha-ras mRNA. The assay is described as follows: Ha-ras mRNA levels by Northern blot in HMVEC. The procedure:
Human dermal microvascular cells (HMVEC-d; Clonetics, San Diego, Calif.) were cultivated in endothelial basal media (EBM, Clonetics) supplemented with 10% fetal bovine serum (HyClone, Logan, Utah). Cells were grown in 100 mm petri dishes until 70-80% confluent, then washed with PBS and OPTI-MEM (Life Technologies, Inc., Gaithersburg, Md.). The cells were then incubated in the presence of OPTI-MEM and […] LIPOFECTIN (a 1:1 (w/w) liposome formulation of the cationic lipid N-[1-(2,3-dioleyloxy)propyl]-n,n,n-trimethylammonium chloride (DOTMA), and dioleoyl phosphotidylethanolamine (DOPE) in membrane filtered water (Life Technologies, Gaithersburg, Md.), per 100 nM of oligonucleotide followed by addition of oligonucleotide at the appropriate concentrations.
For determination of mRNA levels by Northern blot, total RNA was prepared from cells by the guanidinium isothiocyanate procedure or by the Qiagen RNAEASY method (Qiagen, Santa Clarita, Calif.) at the indicated times after initiation of oligonucleotide treatment. Northern blot analysis was performed as described in Current Protocols in Molecular Biology (Ausubel, F. M., et al., (eds), 1987, Greene Publishing Assoc. and Wiley Interscience, New York). A glyceraldehyde 3-phosphate dehydrogenase (G3PDH) probe was purchased from Clontech (Palo Alto, Calif., Catalog Number 9805-1). RNA was quantified and normalized to G3PDH mRNA levels using a Molecular Dynamic PHOSPHORIMAGER (Sunnyvale, Calif.).
ISIS 15168 (SEQ ID NO. 4) is a 2'-O-methoxyethyl mixed backbone chimeric antisense oligonucleotide designed to hybridize with sequences contained within the human Ha-ras mRNA. To determine the effect of ISIS 15168 (SEQ ID NO. 4) on Ha-ras expression in endothelial cells, HMVEC were treated, as described in Example 2, with oligonucleotide and northern blotting was used to measure Ha-ras mRNA levels. A Ha-ras probe was generated from the plasmid, pbc-N1 (American Type Culture Collection, Manassas, Va.; catalog #41001), following the supplied instructions.

The test system of another assay is c-raf protein. The assay is described as follows: c-raf protein levels by Western blot in HMVEC. How it is done: as §1
ISIS 12854 (SEQ ID NO. 2) is a 2'-O-methoxyethyl mixed backbone chimeric antisense oligonucleotide designed to hybridize with 3'-untranslated sequences contained within human c-raf mRNA. To determine whether this antisense oligonucleotide is effective as a c-raf inhibitor in endothelial cells, human dermal microvascular cells (HMVEC) were treated with ISIS 12854 (SEQ ID NO. 2) as described in Example 2. C-raf mRNA and protein expression was examined by northern and Western blot analysis. The c-raf cDNA probe was generated from the plasmid, p627 (American Type Culture Collection, Manassas, Va.; catalog #41050), following the supplied instructions. The c-raf antibody was obtained from Transduction Laboratories, Inc. (Lexington, Ky.).

Consider “ToCoAsGsTsAsAsTsAsGsCsCsCoCoAoCoAoToGoG [ISIS 17552, reference compound]”, for which, in the assay on Ha-ras protein, the Ha-ras protein expression result was “no effect”. Besides, in the assay with Ki-ras protein, the “effect on Ki-ras protein levels” value is “No effect”. The “% mRNA Expression (Ha-ras)” value was 103% with Ha-ras mRNA (1 nM); 115% in the assay with Ha-ras mRNA (5 nM); 96% in the assay with Ha-ras mRNA (25 nM); 109% with Ha-ras mRNA (50 nM); 105% in the assay on Ha-ras mRNA (100 nM). For the same substance, in the assay on Ha-ras mRNA (25 nM), the “% mRNA Inhibition (Ha-ras)” value was 4%.
Consider “ToCoCoCoGoCsCsTsGsTsGsAsCsAsToGoCoAoToT [ISIS 12854]”, for which the “time of maximal reduction of c-raf protein levels” value with c-raf protein (after treatment with 150 nM oligonucleotide) amounted to 48 h. Further, the “time at which reduction in c-raf protein expression was first detectable” value with c-raf protein (after treatment, Western blot) is 24 h. Moreover, in the assay on c-raf protein (following initial treatment), the “persistence of reduction of c-raf protein levels” value is recorded as “up to 72 hour”.
As to “ToCoCsGsTsCsAsTsCsGsCsTsCoCoToCoAoGoGoG [ISIS 15168]”, the Ha-ras protein expression entry in the assay with Ha-ras protein is on record as “dose-dependent reduction”. In addition, the “persistence of reduction of Ha-ras protein” value in the assay with Ha-ras protein (following initial treatment) is given as “up to 72 hours”. In the assay on Ki-ras protein, the “effect on Ki-ras protein levels” value is listed as “No effect”. The “% mRNA Expression (Ha-ras)” value in the assay with Ha-ras mRNA (1 nM) was 61%; in the assay on Ha-ras mRNA (5 nM), 44%; with Ha-ras mRNA (25 nM), 19%; with Ha-ras mRNA (50 nM), 10%; in the assay with Ha-ras mRNA (100 nM), 9%. The “% mRNA Inhibition (Ha-ras)” value with Ha-ras mRNA (1 nM) was 39%; with Ha-ras mRNA (5 nM) it was 56%; in the assay on Ha-ras mRNA (25 nM), 81%; in the assay with Ha-ras mRNA (50 nM), 90%; in the assay with Ha-ras mRNA (100 nM), 91%.

(Values after US6114517A, “Methods of modulating tumor necrosis factor α-induced expression of cell adhesion molecules” (Isis Pharmaceuticals Inc., priority 1998, dated 2000).)
